Results on 8 compounds are retold here after ChEMBL document CHEMBL1127201, “Biological activity of 3-aminopropyl (methyl) phosphinic acid, a potent and selective GABAB agonist with CNS activity” (Bioorg Med Chem Lett, 1993).

This assay deals with GABA B receptor (Rattus norvegicus, UniProt O88871+Q9Z0U4). In words: In vitro displacement of [3H]GABA from Gamma-aminobutyric acid type B receptor sites in rat brain membranes. The class given is cell membranes. A general note: In a radioligand displacement assay an active substance lowers the binding of a labelled ligand.
GABA B receptor, sequence (Q9Z0U4 whole entry): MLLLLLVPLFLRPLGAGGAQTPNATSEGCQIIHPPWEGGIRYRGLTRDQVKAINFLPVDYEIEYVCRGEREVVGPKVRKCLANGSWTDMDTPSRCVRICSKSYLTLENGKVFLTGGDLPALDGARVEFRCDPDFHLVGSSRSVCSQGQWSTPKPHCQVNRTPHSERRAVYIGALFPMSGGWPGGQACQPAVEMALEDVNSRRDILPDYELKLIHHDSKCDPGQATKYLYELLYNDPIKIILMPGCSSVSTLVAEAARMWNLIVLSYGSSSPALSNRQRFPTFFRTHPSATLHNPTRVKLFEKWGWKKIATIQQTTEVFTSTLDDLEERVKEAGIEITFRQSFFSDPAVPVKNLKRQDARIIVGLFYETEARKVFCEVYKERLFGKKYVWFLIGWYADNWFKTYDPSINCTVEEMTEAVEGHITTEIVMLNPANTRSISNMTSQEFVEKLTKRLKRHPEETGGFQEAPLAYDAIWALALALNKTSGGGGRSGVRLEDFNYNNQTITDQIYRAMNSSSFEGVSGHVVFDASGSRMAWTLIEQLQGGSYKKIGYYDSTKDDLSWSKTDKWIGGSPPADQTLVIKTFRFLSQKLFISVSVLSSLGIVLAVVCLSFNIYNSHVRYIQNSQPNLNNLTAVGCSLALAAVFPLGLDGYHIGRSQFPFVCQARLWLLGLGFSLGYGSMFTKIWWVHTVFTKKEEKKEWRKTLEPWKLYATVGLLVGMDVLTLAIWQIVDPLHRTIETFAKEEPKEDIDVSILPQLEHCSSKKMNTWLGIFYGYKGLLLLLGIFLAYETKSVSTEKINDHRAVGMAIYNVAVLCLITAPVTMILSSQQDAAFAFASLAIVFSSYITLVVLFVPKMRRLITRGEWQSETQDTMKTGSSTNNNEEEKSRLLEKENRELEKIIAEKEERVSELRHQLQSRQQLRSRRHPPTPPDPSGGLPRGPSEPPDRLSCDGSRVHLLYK
GABA B receptor, sequence (O88871 whole entry): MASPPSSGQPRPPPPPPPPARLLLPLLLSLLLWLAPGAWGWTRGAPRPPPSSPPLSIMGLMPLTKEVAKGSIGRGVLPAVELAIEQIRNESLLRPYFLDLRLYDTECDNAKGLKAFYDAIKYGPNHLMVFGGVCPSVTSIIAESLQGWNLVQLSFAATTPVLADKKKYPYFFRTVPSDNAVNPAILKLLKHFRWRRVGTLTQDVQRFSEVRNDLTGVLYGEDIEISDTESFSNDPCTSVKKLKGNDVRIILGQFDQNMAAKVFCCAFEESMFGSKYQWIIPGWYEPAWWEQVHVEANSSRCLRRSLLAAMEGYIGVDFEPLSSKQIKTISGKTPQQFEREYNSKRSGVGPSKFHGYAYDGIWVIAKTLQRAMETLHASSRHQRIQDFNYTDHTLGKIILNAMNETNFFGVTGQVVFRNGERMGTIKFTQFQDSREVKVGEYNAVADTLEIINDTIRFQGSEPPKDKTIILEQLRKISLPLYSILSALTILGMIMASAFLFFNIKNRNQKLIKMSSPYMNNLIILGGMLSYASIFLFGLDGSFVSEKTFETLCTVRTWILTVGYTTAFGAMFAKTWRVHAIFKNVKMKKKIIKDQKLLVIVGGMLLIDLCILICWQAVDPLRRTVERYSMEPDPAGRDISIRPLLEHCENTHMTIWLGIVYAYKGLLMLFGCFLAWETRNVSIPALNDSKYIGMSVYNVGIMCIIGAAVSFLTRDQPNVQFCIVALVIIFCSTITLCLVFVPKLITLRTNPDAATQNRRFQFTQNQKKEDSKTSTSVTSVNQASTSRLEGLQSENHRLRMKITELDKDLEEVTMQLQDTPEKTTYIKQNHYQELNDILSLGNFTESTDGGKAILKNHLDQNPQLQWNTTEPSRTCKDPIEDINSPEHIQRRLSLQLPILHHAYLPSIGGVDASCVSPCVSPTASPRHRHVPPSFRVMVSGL

One may read the IC50 as the midpoint of a concentration-inhibition curve.

In turn, `NCCCS(=O)(=O)O` [TRAMIPROSATE] gave an IC50 of 2000 nM. This lies in the single-digit micromolar range. `CCCCCCP(=O)(O)CCCN` had an IC50 of 1000 nM. Take `NCCC[PH](=O)O`: the IC50 worked out at 3 nM. `NCCCP(=O)(O)O` yielded an IC50 of 2000 nM. On to `NCCOS(=O)(=O)O`, for which the IC50 was greater than 100000 nM. For the compound `CCOC(OCC)P(=O)(O)CCCN`, the IC50 was determined as 2500 nM. In other words, the single-digit micromolar range. Turning to `NCCOP(=O)(O)O` [PHOSPHORYLETHANOLAMINE], the IC50 is greater than 100000 nM. `CCP(=O)(O)CCCN` showed an IC50 of 3000 nM.
